Results reported in US8946412B2 (priority 2009, dated 2015).
Counter-ions that a name gives are not always drawn. Like-named read-outs stand apart in the source and are kept apart here.

Biological target: α7-subtype of nicotinic receptors (Rattus norvegicus, UniProt Q05941)
Assay: biochemical
Assay type: binding

α7-subtype of nicotinic receptors, sequence (Q05941 23-502): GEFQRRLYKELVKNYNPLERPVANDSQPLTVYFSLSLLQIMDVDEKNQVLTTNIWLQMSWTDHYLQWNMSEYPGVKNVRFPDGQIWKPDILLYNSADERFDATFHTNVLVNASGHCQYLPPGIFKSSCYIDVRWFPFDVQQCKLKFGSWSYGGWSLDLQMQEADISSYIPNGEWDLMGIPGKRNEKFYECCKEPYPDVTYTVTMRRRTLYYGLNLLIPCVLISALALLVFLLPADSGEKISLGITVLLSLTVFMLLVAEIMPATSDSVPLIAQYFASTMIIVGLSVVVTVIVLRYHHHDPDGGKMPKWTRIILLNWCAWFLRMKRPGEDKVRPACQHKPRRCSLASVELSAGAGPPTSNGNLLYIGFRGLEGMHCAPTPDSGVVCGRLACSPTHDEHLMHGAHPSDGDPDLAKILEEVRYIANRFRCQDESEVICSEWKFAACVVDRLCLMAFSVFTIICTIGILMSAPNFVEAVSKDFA

Structure (SMILES)	IC50	IC50 (rat brain, concentration inhibiting specific binding of 3H-α-bungarotoxin by 50%, read-out: IC50 Inhibition of 3H-α-Bungarotoxine Binding)
FCCn1cccc1-c1nnc(N2CCN3CCC2CC3)o1 [Compound 1, 2-(1,4-Diazabicyclo[3.2.2]nonan-4-yl)-5-[1-(2-fluoroethyl)pyrrol-2-yl]-1,3,4-oxadiazole fumaric acid salt]	11 nM	
c1c[nH]c(-c2nnc(N3CCN4CCC3CC4)o2)c1 [Compound 3, 2-(1,4-Diazabicyclo[3.2.2]nonan-4-yl)-5-(1H-pyrrol-2-yl)-1,3,4-oxadiazole free base]		17 nM
